Publication PMC5058653, “A Fhit-mimetic peptide suppresses annexin A4-mediated chemoresistance to paclitaxel in lung cancer cells” (Oncotarget, 2016)
No end group written: not given here.

Legend:
[1] = system: A549 cells; experiment: A549 tumor xenograft in nude mice, tumor weight; format: in vivo, mouse; conditions: s.c. A549 xenograft, paclitaxel alone 40 mg/kg single i.v. dose, 48 h, n = 5 mice per group
Experimental: We further investigated the in vivo effects of Tat-Fhit 7-13 peptide with or without paclitaxel treatment in a preclinical model of lung cancer, using six groups of mice (n = 5 mice per group). Each group was subcutaneously injected with 1×10^7 A549 cells. When tumors reached the diameter of 15 mm, three groups were treated either with a single administration of 40 mg/kg paclitaxel, or 50 mg/kg Tat-Fhit 7-13 peptide, or both; mice were monitored on a regular basis. The remaining three groups, used as controls, were either left untreated or treated with Tat-Fhit 7-13 scrambled or treated with Tat-Fhit 7-13 scrambled plus paclitaxel; 48 h after treatments, mice were sacrificed and tumors were evaluated by weight.
Figure 3 Tat-Fhit 7-13 peptide in combination with paclitaxel blocks in vivo tumor formation A., C. Nude mice were subcutaneously injected with […] A549 cells. When tumors reached 15 mm diameter, mice were mock-treated, treated paclitaxel (single IV administration of 40 mg/kg), with scrambled Tat peptide (50 mg/kg) alone or in combination with paclitaxel, with Tat-Fhit 7-13 peptide (50 mg/Kg) alone or in combination with paclitaxel; paclitaxel and peptides were injected in a single administration and mice were monitored on a regular basis. Two days later, mice were sacrificed and tumors were evaluated by percent A. and by weight C.. […]

[2] = culture medium over adherent cells, 24 h after administration, read-out MALDI mass spectrometry
Description: We tested the stability of our peptides in the culture medium over adherent cells through Mass Spectroemtry-MALDI.

[3] = target: T1, Annexin A4 (Homo sapiens, UniProt P09525); experiment: GST pull-down from A549 total lysates, immunoblot for Annexin 4; format: binding; conditions: GSH resin beads, 12 h at 4°C
T1 construct: endogenous in cells; host or cells: A549 total lysates
T1 sequence (P09525 1-319): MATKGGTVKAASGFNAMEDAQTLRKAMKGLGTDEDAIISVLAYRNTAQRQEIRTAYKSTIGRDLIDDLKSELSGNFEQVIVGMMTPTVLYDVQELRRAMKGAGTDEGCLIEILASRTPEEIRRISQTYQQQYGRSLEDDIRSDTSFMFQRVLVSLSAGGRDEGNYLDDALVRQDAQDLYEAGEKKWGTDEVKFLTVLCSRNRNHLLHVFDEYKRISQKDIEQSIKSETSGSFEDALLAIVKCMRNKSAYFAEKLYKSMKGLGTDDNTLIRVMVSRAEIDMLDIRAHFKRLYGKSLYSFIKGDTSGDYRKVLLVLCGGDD
Description: In order to map the region of Fhit protein binding Annexin A4, we cloned downstream GST three truncated FHIT cDNAs, namely TR1 (332 bp), TR2 (212 bp) and TR3 (113 bp), all containing the N-terminus common to the wild-type Fhit protein. TR1, TR2, and TR3 correspond to the 111, 71, and 38 N-terminal aminoacids of Fhit protein, respectively (Figure 1A). Annexin A4 binds wild-type Fhit/GST fusion protein as well as all shorter forms of Fhit fusion proteins, indicating its binding to the N-terminus of Fhit (Figure 1B). In our previous paper, we reported that Fhit/Annexin A4 interaction was only detectable in the presence of DSP [19]. DSP is a cross-linker containing an amine-reactive N-hydroxysuccinimide (NHS); NHS esters react with primary amine group located at lysine (Lys, K) residue sidechain. Since Lys residues are abundant and easily accessible on the hydrophilic surface of most proteins they usually crosslink with high efficiency.
Figure 1 Fhit peptide interacts with Annexin 4 A. GST-Fhit fusion protein and three deletion mutant proteins. Fhit was deleted from the C-terminal site. B. GST-FHIT plasmids were amplified in BL21 bacteria by stimulation with IPTG […] for 6 h at 30°C. Recombinant GST-Fhit fusion proteins were purified with GSH resin beads and added to A549 total lysates. 12 h after incubation at 4°C, GSH resin beads were washed and proteins eluted. […]

Compound | stability in the culture medium [2] | other results
CC(=O)O[C@H]1C(=O)[C@@]2(C)[C@H]([C@H](OC(=O)c3ccccc3)[C@]3(O)C[C@H](OC(=O)[C@H](O)[C@@H](NC(=O)c4ccccc4)c4ccccc4)C(C)=C1C3(C)C)[C@]1(OC(C)=O)CO[C@@H]1C[C@@H]2O [paclitaxel] | – | tumor wt, % of controls [1]: 60%
YGRKKRRQRRRGLSKQPHI [Tat-Fhit 7-13 scrambled peptide] | still stable and undegraded | –
YGRKKRRQRRRGQHLIKPS [Tat-Fhit 7-13 peptide] | still stable and undegraded | –
wild-type Fhit/GST fusion protein: recombinant full-length Fhit fused to GST, expressed in E. coli BL21 | – | binding of Annexin A4 (GST pull-down) [3]: binds
